Molecular target: T1, human recombinant, purified wild type His-B-Raf protein kinase (Homo sapiens, UniProt P15056)
T1 construct: His
Assay: B-Raf In Vitro ELISA Assay
Type: biochemical
Conditions: ELISA of MEK1 phosphorylation; 2.5 nM B-Raf, 10 μM ATP; 1 hour preincubation at 25° C.
Experimental: B-Raf In Vitro ELISA Assay
Activity of human recombinant, purified wild type His-B-Raf protein kinase was determined in vitro using an enzyme-linked immunosorbent assay (ELISA) assay format, which measures phosphorylation of the B-Raf substrate, human recombinant, purified His-derived (detagged) MEK1. The reaction utilized 2.5 nM B-Raf, 0.15 μM […] and 10 μM adenosine triphosphate (ATP) in 40 mM N-(2-hydroxyethyl)piperazine-N′-(2-ethanesulfonic acid hemisodium salt (HEPES), 5 mM 1,4-dithio-DL-threitol (DTT), 10 mM MgCl2, 1 mM ethylenediaminetetraacetic acid (EDTA) and 0.2 M NaCl (1×HEPES buffer), with or without compound at various concentrations, in a total reaction volume of 25 μl in 384 well plates. B-Raf and compound were preincubated in 1×HEPES buffer for 1 hour at 25° C. Reactions were initiated with addition of MEK1 and ATP in 1×HEPES buffer and incubated at 25° C. for 50 minutes and reactions stopped by addition of 10 μl 175 mM EDTA (final concentration 50 mM) in 1×HEPES buffer. 5 μl of the assay mix was then diluted 1:20 into 50 mM EDTA in 1×HEPES buffer, transferred to 384 well black high protein binding plates and incubated overnight at 4° C. […] Blue fluorescent product was detected at excitation 325 and emission 420 using a TECAN Ultra plate reader. Data was graphed and IC50s calculated using Excel Fit (Microsoft).

T1 sequence (P15056 whole entry): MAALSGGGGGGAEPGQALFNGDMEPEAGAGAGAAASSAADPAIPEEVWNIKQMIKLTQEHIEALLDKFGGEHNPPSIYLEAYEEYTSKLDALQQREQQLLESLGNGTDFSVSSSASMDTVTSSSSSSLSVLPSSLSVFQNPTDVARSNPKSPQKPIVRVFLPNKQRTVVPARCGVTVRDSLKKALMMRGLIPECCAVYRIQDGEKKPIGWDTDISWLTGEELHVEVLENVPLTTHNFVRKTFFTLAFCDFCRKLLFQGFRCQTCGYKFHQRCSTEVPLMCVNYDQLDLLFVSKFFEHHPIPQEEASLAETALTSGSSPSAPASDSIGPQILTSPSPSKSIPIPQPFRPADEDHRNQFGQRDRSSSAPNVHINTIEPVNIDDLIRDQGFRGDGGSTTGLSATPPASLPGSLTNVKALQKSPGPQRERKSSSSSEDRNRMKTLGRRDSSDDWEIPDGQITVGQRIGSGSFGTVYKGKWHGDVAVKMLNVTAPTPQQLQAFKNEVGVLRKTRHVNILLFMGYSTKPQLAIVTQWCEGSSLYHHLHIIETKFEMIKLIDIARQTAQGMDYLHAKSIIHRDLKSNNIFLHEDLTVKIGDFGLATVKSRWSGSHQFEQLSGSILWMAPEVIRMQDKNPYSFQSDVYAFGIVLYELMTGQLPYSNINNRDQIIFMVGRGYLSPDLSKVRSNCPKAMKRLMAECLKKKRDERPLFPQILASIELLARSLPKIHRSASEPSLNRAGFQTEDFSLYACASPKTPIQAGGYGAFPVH

Structure (SMILES) | IC50 [nM]
Cc1ccc(NC(=O)c2cccc(C(C)(C)C#N)c2)cc1Nc1ccnc(-c2cccnc2)n1 [Example 2, 3-(1-Cyano-1-methylethyl)-N-{4-methyl-3-[(2-pyridin-3-ylpyrimidin-4-yl)amino]phenyl}benzamide] | 153
Cc1ccc(NC(=O)c2cccc(C(C)(C)C#N)c2)cc1Nc1cc(NC2CC2)nc(-c2cccnc2)n1 [Example 4, 3-(Cyano-dimethyl-methyl)-N-[3-(6-cyclopropylamino-2-pyridin-3-yl-pyrimidin-4-ylamino)-4-methyl-phenyl]benzamide] | 1350
